Measured values as given in patent publication US20210196779A1, “Compositions and Methods for Treating Steroid Hormone-Related Diseases or Disorders” (YALE UNIVERSITY, priority 2018, published 2021).

Experiments:
GR (stimulated with DEX) = molecular target: T1, GR (stimulated with DEX) (Homo sapiens, UniProt P04150); experiment: GR driven luciferase activity (DEX) in LNCaP-GR cells; format: cell-based; settings: LNCaP-GR luciferase reporter cells
T1 construct: expressed in transfected cells; host or cells: LNCaP (LNCaP-GR)
Experimental: Both LNCaP and GR overexpressing LNCaP cells were carrying luciferase reporters with AR response elements.
Reporter cells were treated with herbal extracts at 30, 100, 300, and 1000 μg/ml for 24 h in a 37° C.-CO2 incubator. DHT (25 nM) was used to stimulate androgen receptor activity. Dexamethasone (50 nM) was used to stimulate glucocorticoid receptor activity Cells were lysed using luciferase lysis buffer after which luciferase buffer with luciferin was added to generate luminescence. Luminescence was recorded using a luminescence microplate reader.

Brd4 = experiment: Western blot, MCF7 and 22RV1 cells, Brd4; format: cell-based; settings: MCF7 (with or without E2) or 22RV1 (with or without DHT), 24 h
Experimental: (§1) Western blot analysis was used to determine the protein expression using protein specific antibodies. β-actin or histone 3 was used to normalize protein loading.
(§2) Total cell lysis was conducted using 2×SDS sample buffer (62.5 mM Tris-HCl, 2% SDS, 10% glycerol, 50 mM DTT, and 0.05% bromophenol blue). The samples were sonicated for 10 s to shear DNA. Cell nuclei were isolated using Tris buffer saline with 0.4% NP40. Cell extracts were then electrophoresed through 10% SDS-polyacrylamide gels and transferred to 0.2 μm nitrocellulose membranes (Bio-Rad Laboratories, Hercules, Calif.) with a Miniprotein II transferring apparatus (Bio-Rad). The membranes were blocked and probed in TBS-T buffer (1×TBS buffer, 0.2% Tween 20) containing 5% non-fat milk. […] Enhanced chemiluminescence reagents (Perkin-Elmer Life Science Products, Boston, Mass.) were used to visualize the immunoreactive bands and the densities of protein bands were scanned analyzed using ImageJ software from the NIH.

H3K27 acetylation = experiment: Western blot, MCF7 and 22RV1 cells, H3K27 acetylation; format: cell-based; settings: 24 h
Experimental: as §1, §2

H3K14 acetylation = experiment: Western blot, MCF7 and 22RV1 cells, H3K14 acetylation; format: cell-based; settings: MCF7 and 22RV1 cells (FIGS. 11A-11B), 24 h
Experimental: as §1, §2

MDA-MB-453 cells = experiment: Cell growth assay, MDA-MB-453 breast cancer cells; format: cell-based; settings: 4 days
Experimental: (§3) MCF7, T47D, MDA-MB-453, MDA-MB-231 breast cancer cells were grown in corning T75 cell culture flask in RPMI1640 medium supplemented with 5% FBS, 50 μg/ml Kanamycin in a 37° C., 5% CO2 incubator.
(§4) 20,000 cells in 1 ml of medium (phenol red free RPMI1640, 5% charcoal-dialysis FBS, 50 μg/ml Kanamyacin) were seeded per well of a 24-well plate and incubated in a 37° C. incubator with 5% CO2 overnight. Different concentrations of herbal extract were added to each well in order to have final concentrations from 50 μg/ml to 500 μg/ml. For prostate cancer cells, DHT (25 nM) was used to stimulate androgen receptor activity. For glucocorticoid receptor overexpressed LNCaP cells, dexamethasone (50 nM) was used to stimulate glucocorticoid receptor activity. For all breast cancer cells, E2 (10 nM) was used to stimulate ER activity. Control medium without any steroid hormone was used as a control setting. After 4 days of incubation, cells were fixed and stained for 2 h with 0.5% methylene blue in 50% ethanol, followed by washing with tap water to remove unbound dye. Plates were air dried and then cells were dissolved in 1% sarkosyl (sodium lauroyl sarcosinate) by shaking at room temperature for 3 h. Cell growth was quantified based on the amount of methylene blue adsorbed by the cells as measured by a spectrophotometer (Molecular Devices) at 595 nm. […]

MDAMB-231 cells = experiment: Cell growth assay, MDAMB-231 breast cancer cells; format: cell-based; settings: 4 days
Experimental: as §3, §4

AR (stimulated with DHT) = AR (stimulated with DHT) (Homo sapiens, UniProt P10275, T878A); experiment: AR driven luciferase activity (DHT) in LNCaP / LNCaP-GR cells; settings: LNCaP / LNCaP-GR luciferase reporter cells
Chain of AR (stimulated with DHT) (P10275 whole entry T878A): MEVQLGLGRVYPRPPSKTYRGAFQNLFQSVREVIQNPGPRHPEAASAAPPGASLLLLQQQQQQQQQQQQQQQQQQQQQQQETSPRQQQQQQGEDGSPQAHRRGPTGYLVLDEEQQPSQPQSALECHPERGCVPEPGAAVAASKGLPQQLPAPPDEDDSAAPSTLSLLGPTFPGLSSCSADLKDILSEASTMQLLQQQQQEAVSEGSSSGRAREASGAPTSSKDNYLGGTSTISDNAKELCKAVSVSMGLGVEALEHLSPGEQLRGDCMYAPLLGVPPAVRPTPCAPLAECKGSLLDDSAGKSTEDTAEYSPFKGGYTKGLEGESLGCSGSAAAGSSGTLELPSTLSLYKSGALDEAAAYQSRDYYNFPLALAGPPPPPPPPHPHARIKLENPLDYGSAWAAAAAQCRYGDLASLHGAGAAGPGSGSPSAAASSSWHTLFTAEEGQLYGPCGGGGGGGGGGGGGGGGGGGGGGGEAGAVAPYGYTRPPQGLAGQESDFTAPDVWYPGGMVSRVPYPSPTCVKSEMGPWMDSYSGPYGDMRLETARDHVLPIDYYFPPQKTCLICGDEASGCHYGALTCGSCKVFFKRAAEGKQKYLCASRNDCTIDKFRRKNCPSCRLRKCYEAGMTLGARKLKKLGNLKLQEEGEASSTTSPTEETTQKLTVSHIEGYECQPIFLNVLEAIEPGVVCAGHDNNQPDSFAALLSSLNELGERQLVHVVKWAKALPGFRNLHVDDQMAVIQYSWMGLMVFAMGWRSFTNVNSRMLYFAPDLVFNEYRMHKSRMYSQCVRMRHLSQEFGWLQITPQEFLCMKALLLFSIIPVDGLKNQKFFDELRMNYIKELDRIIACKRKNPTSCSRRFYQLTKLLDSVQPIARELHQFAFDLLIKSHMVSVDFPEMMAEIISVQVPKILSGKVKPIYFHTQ
Experimental: 22RV1 or LNCaP prostate cancer cells were used in the screening study. 22RV1 or LNCaP cell lines were stably transfected with PSA promoter-PGL4.2 luciferase reporter.
Reporter cells were treated with herbal extracts at 30, 100, 300, and 1000 μg/ml for 24 h in a 37° C.-CO2 incubator. […] Dexamethasone (50 nM) was used to stimulate glucocorticoid receptor activity Cells were lysed using luciferase lysis buffer after which luciferase buffer with luciferin was added to generate luminescence. Luminescence was recorded using a luminescence microplate reader.

T1 sequence (P04150 whole entry): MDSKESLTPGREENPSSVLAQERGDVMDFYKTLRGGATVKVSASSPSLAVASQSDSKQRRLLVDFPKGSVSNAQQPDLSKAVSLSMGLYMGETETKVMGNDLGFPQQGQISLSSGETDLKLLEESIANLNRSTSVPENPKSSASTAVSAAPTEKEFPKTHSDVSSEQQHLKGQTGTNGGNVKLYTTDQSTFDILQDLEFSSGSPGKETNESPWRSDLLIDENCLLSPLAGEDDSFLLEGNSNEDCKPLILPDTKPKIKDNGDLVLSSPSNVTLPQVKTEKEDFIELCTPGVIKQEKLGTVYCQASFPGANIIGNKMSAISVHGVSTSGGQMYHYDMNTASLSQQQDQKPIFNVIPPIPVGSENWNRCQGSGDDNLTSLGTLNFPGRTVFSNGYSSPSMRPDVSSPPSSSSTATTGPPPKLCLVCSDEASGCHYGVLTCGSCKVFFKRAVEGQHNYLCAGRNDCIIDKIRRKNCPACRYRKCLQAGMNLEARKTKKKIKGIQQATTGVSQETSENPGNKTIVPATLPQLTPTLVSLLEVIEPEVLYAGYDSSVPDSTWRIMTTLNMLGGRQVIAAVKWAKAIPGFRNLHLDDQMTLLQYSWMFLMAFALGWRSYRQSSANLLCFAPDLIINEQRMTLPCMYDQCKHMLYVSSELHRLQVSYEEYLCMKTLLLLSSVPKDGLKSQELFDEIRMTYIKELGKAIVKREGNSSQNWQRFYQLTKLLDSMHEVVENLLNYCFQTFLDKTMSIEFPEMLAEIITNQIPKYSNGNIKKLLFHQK

inhibition of DEX induced transcriptional response (GR (stimulated with DEX)): effectively inhibit
inhibition of DHT induced transcriptional response (AR (stimulated with DHT)): effectively inhibit
Structure (SMILES): CC(=O)OCC1OC(Oc2cc3c(c(O)c2C)C(=O)c2ccc(O)cc2C3=O)C(OC2OC(C)C(O)C(O)C2O)C(O)C1O [RGA, 1,3,6-Trihydroxy-2-methyl-9,10-anthracenedione 3-O-[α-L-Rhamnopyranosyl-(1→2)-6-O-acetyl-β-D-glucopyranoside]]
Brd4 protein expression (Brd4): decreased
H3K27 acetylation (H3K27 acetylation): selectively decreased
H3K14 acetylation (H3K14 acetylation): did not have a large impact
inhibition of growth of double negative MDA-MB-453 cells (MDA-MB-453 cells): inhibited the growth
inhibition of growth of triple negative MDAMB-231 cells (MDAMB-231 cells): inhibited the growth
